{"source": "patent US12493025B2", "about": "“Microfluidic device and method of preparing a cell model for disease associated with cancer” (City University of Hong Kong, priority 2020, dated 2025)", "key": {"[1]": {"system": "uropathogenic E. coli strain UTI89", "experiment": "MIC of ciprofloxacin", "assay_type": "cell-based, Escherichia coli"}, "[2]": {"system": "UMUC-3 bladder cancer cells", "experiment": "Cancer cell viability in clusters co-cultured with UTI89 (CT and CL models), Calcein-AM/Hoechst; doxorubicin dose-response", "assay_type": "cell-based, human", "details": "for IC50: Homo sapiens, UMUC3, MOI 1:1, concentration giving 50% cell viability", "experimental": "For CT models, bacterial suspension was centrifuged for 10,000 rpm for 5 min, and the supernatant was removed and replaced with MEM-α (10% supplemented with FBS, no added penicillin-streptomycin) at final dilutions at the rate of 500:1, 100:1, and 1:1 (bacteria:cell). After seeding and incubating for 24 h, the UMUC-3 cell clusters in the microchannels were stained using Hoechst dye for 30 minutes at 37° C. before infection. After original media with dye in channels was gently removed, the diluted bacterial suspension was added into 9 channels separately, three channels per concentration. The corresponding control group of the two models was obtained at time points before the introduction of bacteria.\nAs for CL models, bacteria suspended in MEM a and UMUC-3 cells (no added penicillin-streptomycin) were mixed before seeding at the rate of 500:1, 100:1, and 1:1. The device was incubated at 37° C. with 5% CO2 and in situ imaging and analyzing at 1 h, 9 h, and 24 h, respectively. Besides, an isolated channel only with 24 h cultured UMUC-3 was set as a negative control to indicate the beginning of the infection.\nFor fluorescent staining analysis, the nuclear dye Hoechst (Life Technologies) and Calcein-AM (Invitrogen) were added into cell suspension in the channel at dilution of 1:1000 (v/v). After incubating for 30 minutes at 37° C. for staining, the media was gently removed from each channel, and the device could be imaged via Nikon Ci-L fluorescent microscope directly at 10× magnification. The images processing and cell counting under fluorescent staining were done through ImageJ software. For infection analysis imaging, after incubating for 30 minutes with fluorescent dyes and remove the mixture of dyes and media in the channel, the channels were washed with 1×PBS to remove unbound bacteria and treated with 100 μg/mL gentamicin for 2 h to kill the extracellular bacteria, then the device could be imaged directly. […]"}, "[3]": {"system": "UMUC-3 bladder cancer cells", "experiment": "Viability of non-infected cancer cells after DNase or Cipro treatment", "assay_type": "cell-based, human", "details": "uninfected control; Cipro 24 h"}, "[4]": {"system": "UMUC-3 bladder cancer cells", "experiment": "Cluster size after DNase treatment of coculture (in situ morphology analysis)", "assay_type": "cell-based, human", "details": "0.01 mg/mL DNase, 9 h of infection", "experimental": "The clusters formed in the microwell after 24 h culture or infection were imaged via an optical microscope by the device put on the objective directly at 40× or 100× magnification. Each channel was shot at three frames at the top, middle and bottom state. The image processing and analysis of cluster size and density were done through ImageJ software.\n(§1) To dissolve the biofilm, 1×DNase (0.01 mg/mL; Sigma-Aldrich) diluted with fresh antibiotic-free culture media were added into channels after 1 h infection, and the device was continually incubated at 37° C. for 8 h. Then downstream in situ analysis was done after removing DNase and washing channels with PBS. The untreated clusters after 9 h infection were set as control."}, "[5]": {"system": "UMUC-3 bladder cancer cells", "experiment": "In situ immunostaining of CD44 and CD24 after DNase treatment", "assay_type": "cell-based, human", "details": "CT model, 9 h after infection", "experimental": "The infected cell clusters were firstly washed with 1×PBS gently and treated with 100 μg/mL gentamicin for 2 h to kill extracellular bacteria but keep the intracellular ones. Then channels were loaded PBS with antibody dyes at dilution of […] (v/v). After incubating for 30 minutes at room temperature for staining, the PBS was gently removed from each channel, and the stained clusters could be directly observed through a fluorescent microscope.\nas §1"}}, "note": "Read-outs that look alike come from different tables or passages of the source."}
{"compound": "O=C(O)c1cn(C2CC2)c2cc(N3CCNCC3)c(F)cc2c1=O", "note": "[ciprofloxacin]", "values": [{"measurement": "MIC", "setting": "[1]; Escherichia coli, as printed in Example 7", "value": 0.025, "unit": "µg/mL"}, {"measurement": "MIC value", "setting": "[1]; as printed in legend of FIG. 14C", "value": 0.025, "unit": "µg/mL"}]}
{"compound": "COc1cccc2c1C(=O)c1c(O)c3c(c(O)c1C2=O)C[C@@](O)(C(=O)CO)C[C@@H]3O[C@H]1C[C@H](N)[C@H](O)[C@H](C)O1", "note": "[doxorubicin]", "values": [{"measurement": "IC50", "setting": "[2]; CL model (intratumoral UTI89), read-out: IC50 of doxorubicin on cancer cells with the CL model", "value": 1590, "unit": "nM"}, {"measurement": "IC50", "setting": "[2]; CT model (extratumoral UTI89), read-out: IC50 of doxorubicin on cancer cells with the CT model", "value": 1790, "unit": "nM"}]}
{"compound": "DNase", "values": [{"measurement": "cancer cell viability in the CT model after biofilm disruption by DNase", "setting": "[2]; CT model, 9 h infection, more obvious at MOIs 100:1 and 500:1", "value": "increased to a level comparable to that in the CL model"}, {"measurement": "adverse effect on non-infected cancer cells (viability)", "setting": "[3]", "value": "neither ciprofloxacin nor DNase had adverse effect"}, {"measurement": "cluster size in the CL model after DNase treatment", "setting": "[4]; CL model", "value": "slight increase in cluster size"}, {"measurement": "cluster size in the CT model after DNase treatment", "setting": "[4]; CT model", "value": "reverse the effect of cluster size reduction"}, {"measurement": "expression intensity of CD24, DNase-treated vs untreated control", "setting": "[5]", "value": "reduced"}, {"measurement": "expression intensity of CD44, DNase-treated vs untreated control", "setting": "[5]", "value": "reduced"}]}
